Experimental data taken from PMC3266496 (2011).

How the values were obtained:
trypanothione reductase [1] = target: T1, trypanothione reductase (Leishmania infantum, UniProt A4HSF7); experiment: X-ray crystal structure at […] Å; format: biochemical
trypanothione reductase [2] = target: T1, trypanothione reductase; experiment: NADPH oxidation kinetics at […] nm, Lineweaver–Burk and Dixon plots; format: biochemical

T1 sequence (A4HSF7 1-491): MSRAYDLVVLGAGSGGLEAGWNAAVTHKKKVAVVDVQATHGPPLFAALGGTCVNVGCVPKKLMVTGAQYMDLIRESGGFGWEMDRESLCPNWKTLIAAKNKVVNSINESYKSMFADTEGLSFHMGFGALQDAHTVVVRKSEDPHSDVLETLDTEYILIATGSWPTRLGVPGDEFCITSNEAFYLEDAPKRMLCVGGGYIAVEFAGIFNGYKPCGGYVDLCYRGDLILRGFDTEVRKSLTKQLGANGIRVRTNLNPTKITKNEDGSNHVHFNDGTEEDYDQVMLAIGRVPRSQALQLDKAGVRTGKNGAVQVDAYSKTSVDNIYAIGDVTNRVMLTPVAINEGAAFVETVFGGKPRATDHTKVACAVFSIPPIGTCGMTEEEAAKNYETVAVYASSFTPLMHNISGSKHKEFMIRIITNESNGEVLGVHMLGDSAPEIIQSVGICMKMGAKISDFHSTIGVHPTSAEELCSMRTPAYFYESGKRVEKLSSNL

Compound: CC[P](CC)(CC)=[Au][S][C@@H]1O[C@H](COC(C)=O)[C@@H](OC(C)=O)[C@H](OC(C)=O)[C@H]1OC(C)=O [AF, auranofin]
- Ki (trypanothione reductase [1]): 155 ± 35 nM

Compound: CCP(CC)CC.[Au+].[Cl-] [CTPAu, Chloro(triethylphosphine)gold(I)]
- Ki (trypanothione reductase [2]): 18 ± 7 nM
